According to publication PMC6940900, “Antiviral Activity of Benzoic Acid Derivative NC-5 Against Influenza A Virus and Its Neuraminidase Inhibition” (International Journal of Molecular Sciences, 2019):
pIC50: −log10 of the molar value.

What was measured:
[1] = molecular target: NA of A/Anhui/1/2013 (H7N9) (Influenza A virus (A/Anhui/1-BALF_RG1/2013(H7N9)), UniProt A0A024E3Q2); type: cell-based
[2] = molecular target: NA of A/Vietnam/1203/2004 (H5N1) (Influenza A virus (A/Viet Nam/1203/2004(H5N1)), UniProt Q6DPL2); test: cell-based

O=C(O)c1ccc(N2C(=O)CCC2(CO)CO)c(Nc2nnc(C3CCCCC3)[nH]2)c1 [compound 5]
pIC50 [1]: < 3.32 | pIC50 [2]: < 3.32
